Key:
Assay type in all cases: in vivo
Ipomoea lacunosa [1] = experiment: Herbicidal activity, corn pot test, Example 59; conditions: pyraclostrobin none, twelve days after sowing
Protocol: In a glass container measuring 60 mm in inner diameter and 20 mm in height, 8 mg of a pyraclostrobin emulsifiable concentrate (emulsifiable concentrate containing 23.8% pyraclostrobin, manufactured by BASF under the trade name of Comet) and 25 corn seeds were placed. After capping a glass container, the pyraclostrobin emulsifiable concentrate was adhered to the corn seeds by shaking the glass container by hand. In the same manner, 22 mg of the pyraclostrobin emulsifiable concentrate was adhered to the corn seeds.
(§1) A plastic pot measuring 194 mm in inner diameter and 176 mm in height was filled with the soil. In this pot, 2 corn seeds were sown per 1 pot and 10 seeds of Ipomoea lacunosa were sown per 1 pot. On the day of sowing of the corn seeds, after sowing the corn seeds, a water diluted solution (24.5 mg of product/liter) of a flumioxazin granular wettable powder (granular wettable powder containing 51% flumioxazin, manufactured by Valent USA Corporation under the trade name of Valor SX), a water diluted solution (66.7 mg of product/liter) of a sulfentrazone granular wettable powder (granular wettable powder containing 75% sulfentrazone, manufactured by FMC Corporation under the trade name of Cover), a water diluted solution (15 mg/liter) of saflufenacil and a water diluted solution (100 mg/liter) of oxyfluorfen were uniformly sprayed over a surface of the soil in each amount described in Tables 22 to 25, using a sprayer. The water diluted solutions of saflufenacil and oxyfluorfen were prepared by dissolving each predetermined amount of saflufenacil and oxyfluorfen in acetone containing 2% (w/v) Tween 20 and diluting each solution with water so as to adjust the concentration of acetone to 10% by volume.
Twelve days after sowing the seeds of corn and Ipomoea lacunose, herbicidal activity was examined.

Ipomoea lacunosa [2] = experiment: Herbicidal activity, corn pot test, Example 76; conditions: metalaxyl-M none, ten days after sowing
Protocol: In a glass container measuring 60 mm in inner diameter and 20 mm in height, 15 mg of a metalaxyl-M emulsifiable concentrate (emulsifiable concentrate containing 33.3% metalaxyl-M, manufactured by Syngenta under the trade name of Apron XL) and 25 corn seeds were placed. After capping this glass container, the metalaxyl-M emulsifiable concentrate was adhered to the corn seeds by shaking the glass container by hand. In the same manner, 33 mg of the metalaxyl-M emulsifiable concentrate was adhered to the corn seeds.
as §1, with “sulfentrazone” for “sulfentrazone,”, “28” for “22”, “31,” for “25,”
Ten days after sowing the seeds of corn and Ipomoea lacunosa, herbicidal activity was examined.

Aulacorthum solani [3] = experiment: Insecticidal effect (protective value), soybean pot test, Example 1; conditions: clothianidin 44.7 g/ha; flumioxazin none; day 6 after release
Protocol: (§2) The evaluation of the insecticidal effect was performed by determining the life and death of the insects at the time of the investigation and calculating the protective value according to the following equation; Protective Value (%)=100×(1−T/C) wherein the symbols have the following meanings;
(§3) C: The number of insects at the time of observation in an untreated section: and
(§4) T: The number of insects at the time of observation in a treated section.
(§5) Thereafter, the test pot was placed in a greenhouse.

Spodoptera litura [4] = experiment: Insecticidal effect (protective value), corn pot test, Example 5; conditions: day 3 after release
Protocol: as §2, §3, §4
(§6) In addition, the clothianidin suspension was attached to the corn seeds in a similar manner except that it was used in an amount of 217.5 μL.
The aqueous diluted solution of saflufenacil was prepared by dissolving a given amount of saflufenacil in acetone containing 2% (w/v) of Tween 20, and diluting this solution with water to an acetone concentration of 10% (v/v).
(§7) Thereafter, the test pot was placed in a greenhouse. On day 22 after corn sowing, 10 fourth-instar larvae of Spodoptera litura were released in the pot and the whole pot was then covered with a nylon cloth.
(§8) On day 3 after release of Spodoptera litura, the insecticidal effect was examined.

Ipomoea hederacea [5] = experiment: Herbicidal effect, corn Wagner pot test, Example 7; conditions: day 11 after sowing, scale 0 to 100
Protocol: (§9) The plastic cup was shaken by the hand so as to attach the clothianidin suspension to the corn seeds.
(§10) A soil was packed in a 1/5000a Wagner pot. The above corn seeds. were sown in the Wagner pot at a rate of one seed per pot, and the seeds of Ipomoea hederacea were sown in the pot at a rate of three seeds per pot. […] The aqueous diluted solution of saflufenacil was prepared by dissolving a given amount of saflufenacil in acetone containing 2% (w/v) of Tween 20, and diluting this solution with water to an acetone concentration of 10% (v/v).
(§11) On day 11 after sowing of the seeds of corn and Ipomoea hederacea, the herbicidal effect and phytotoxicity were examined.

Ipomoea hederacea [6] = experiment: Herbicidal effect, soybean Wagner pot test, Example 6; conditions: clothianidin 73 g/ha; flumioxazin none; day 11 after sowing; scale 0 to 100
From the text: (§12) A soil was packed in a 1/5000a Wagner pot. The above soybean seeds were sown in the Wagner pot at a rate of two seeds per pot, and the seeds of Ipomoea hederacea were sown in the pot at a rate of three seeds per pot.
(§13) On day 11 after sowing of the seeds of soybean and Ipomoea hederacea, the herbicidal effect and phytotoxicity were examined.

Aulacorthum solani [7] = experiment: Insecticidal effect (protective value), soybean pot test, Example 3; conditions: day 7 after release
Protocol: as §2, §3, §4, §5

corn = experiment: Phytotoxicity to corn, Example 7; conditions: day 11 after sowing
Protocol: as §9, §10, §11

Spodoptera litura [8] = experiment: Insecticidal effect (protective value), corn pot test, Example 4; conditions: flumioxazin none, day 3 after release
Protocol: as §2, §3, §4, §6, §7, §8

soybean = experiment: Phytotoxicity to soybean, Example 6; conditions: clothianidin 73 g/ha; flumioxazin none; day 11 after sowing
From the text: as §12, §13

Ipomoea hederacea [9] = experiment: Herbicidal activity, corn pot test, Example 16; conditions: azole seed treatment none, saflufenacil 30 g/ha, twelve days after sowing
Protocol: In a glass container measuring 60 mm in inner diameter and 20 mm in height, 8 μl of a prothioconazole emulsifiable concentrate (emulsifiable concentrate containing 25% prothioconazole, manufactured by Bayer Crop Science Inc. under the trade name of Proline) and 20 corn seeds were placed. The prothioconazole emulsifiable concentrate was adhered to the corn seeds by shaking this plastic cup by hand. In the same manner, 8 μl of a difenoconazole emulsifiable concentrate (emulsifiable concentrate containing 25% difenoconazole, manufactured by Syngenta under the trade name of Score) was adhered to 20 corn seeds. In the same manner, 50 mg of a tebuconazole suspension (suspension containing 20% tebuconazole, manufactured by Hokko Chemical Industry under the trade name of ONLY ONE Flowable) was adhered to 20 corn seeds.
A plastic pot measuring 194 mm in inner diameter and 176 mm in height was filled with the soil. In this pot, 3 corn seeds were sown per 1 pot and 10 seeds of Ipomoea hederacea were sown per 1 pot. […]

Aulacorthum solani [10] = experiment: Insecticidal effect (protective value), soybean pot test, Example 2; conditions: thiamethoxam 78.9 g/ha; flumioxazin none; day 6 after release
Protocol: as §2, §3, §4, §5

[11] = clothianidin 340 g/ha, saflufenacil none
[12] = clothianidin 605 g/ha, saflufenacil none
[13] = clothianidin none, saflufenacil 32 g/ha

SMILES: CCOc1cc(Oc2ccc(C(F)(F)F)cc2Cl)ccc1[N+](=O)[O-] [Oxyfluorfen, oxyfluorfen]
- Herbicidal activity (Ipomoea lacunosa [1]; oxyfluorfen 200 g/ha): 45
- Herbicidal activity (Ipomoea lacunosa [2]; oxyfluorfen 200 g/ha): 45

SMILES: CN/C(=N\[N+](=O)[O-])NCc1cnc(Cl)s1 [Clothianidin, clothianidin]
- Protective Value (Aulacorthum solani [3]): 59.1%
- Protective Value (Spodoptera litura [4]; clothianidin 272 g/ha, saflufenacil none): 30%
- Protective Value (Spodoptera litura [4]; clothianidin 496 g/ha, saflufenacil none): 40%
- Evaluation of Effect on Weeds (Ipomoea hederacea [5]; [11]): 0
- Evaluation of Effect on Weeds (Ipomoea hederacea [5]; [12]): 0
- Evaluation of Effect on Weeds (Ipomoea hederacea [6]): 0
- Protective Value (Aulacorthum solani [7]; clothianidin 55.3 g/ha, sulfentrazone none): 55.2%
- Phytotoxicity to Corn (corn; [11]): No harm
- Phytotoxicity to Corn (corn; [12]): No harm
- Protective Value (Spodoptera litura [8]; clothianidin 553 g/ha): 30%
- Protective Value (Spodoptera litura [8]; clothianidin 984 g/ha): 65%
- Phytotoxicity to Soybean (soybean): No harm

SMILES: CC(C)N(C)S(=O)(=O)NC(=O)c1cc(-n2c(=O)cc(C(F)(F)F)n(C)c2=O)c(F)cc1Cl [Saflufenacil, saflufenacil]
- Herbicidal activity on Ipomoea hederacea (Ipomoea hederacea [9]): 88
- Herbicidal activity (Ipomoea lacunosa [1]; saflufenacil 30 g/ha): 45
- Protective Value (Spodoptera litura [4]; [13]): 0%
- Protective Value (Spodoptera litura [4]; clothianidin none, saflufenacil 125 g/ha): 0%
- Evaluation of Effect on Weeds (Ipomoea hederacea [5]; [13]): 50
- Herbicidal activity (Ipomoea lacunosa [2]; saflufenacil 30 g/ha): 45
- Phytotoxicity to Corn (corn; [13]): No harm

SMILES: CN1COCN(Cc2cnc(Cl)s2)/C1=N\[N+](=O)[O-] [Thiamethoxam, thiamethoxam]
- Protective Value (Aulacorthum solani [10]): 86.9%

SMILES: Cc1nn(-c2cc(NS(C)(=O)=O)c(Cl)cc2Cl)c(=O)n1C(F)F [Sulfentrazone, sulfentrazone]
- Herbicidal activity (Ipomoea lacunosa [1]; sulfentrazone 100 g/ha): 40
- Herbicidal activity (Ipomoea lacunosa [2]; sulfentrazone 100 g/ha): 40
- Protective Value (Aulacorthum solani [7]; clothianidin none, sulfentrazone 200 g/ha): 0%

— patent publication US8859463B2, “Method for controlling noxious organisms” (Sumitomo Chemical Company, Limited, priority 2009, dated 2014)
